Test results as given in patent US11058700B2, “Macrocyclic lactones and uses thereof as modulators of purinergic receptors” (City of Hope, priority 2015, dated 2021).

Legend:
[1] = tested on: MDA-MB-231 breast cancer cells; assay: Viability of breast cancer cells compared to normal fibroblasts; format: cell-based; details: MDA-MB-231 vs normal non-transformed human foreskin fibroblasts (HFFs)
Description: FIGS. 1A-1H. Ivermectin kills breast cancer cells through a mixed apoptotic and necrotic mechanism. FIG. 1A: Mouse (4T1.2) and human (MDA-MB-231) TNBC cells manifest similar sensitivity to Ivermectin. Viability of cells treated with various doses of Ivermectin for 24 h. FIG. 1B: Extended exposure time reduces IC50 values to as low as 2 μM. 4T1.2 cells were seeded at 100 cells/well and individual colonies were counted after a week. Cancer cells were exposed to Ivermectin during the initial 24 h or during the entire duration of the assay. FIG. 1C: MDA-MB-231 breast cancer cells manifest higher sensitivity to Ivermectin compared to normal non-transformed human foreskin fibroblasts (HFFs). FIG. 1D: Flow cytometry analysis showing that cell death proceeds through two distinct pathways: a directly necrotic 7AAD-single positive or Annexin V/PS-single positive apoptotic pathway. FIG. 1E: Kinetics of necrotic versus apoptotic killing of 4T1.2 breast cancer cells. FIG. 1F: Ivermectin-induced cell death can be reversed by inhibition of various controlled cell death pathways. […]
(§1) Cell viability. […] Following treatment the plates were washed once with PBS and cell viability was measured using the acid phosphatase assay. […] Absorption at 405 nm was measured within 10 min using a multi-well plate reader. Mode of cell death and viability of cells in suspension was evaluated using flow cytometry. […]

[2] = tested on: breast (MCF7), prostate (DU-145), head and neck (A253), and ovarian (SKOV3) cancer cells; assay: Killing of resistant human cancer cell lines by Ivermectin and ATP; format: cell-based; details: Ivermectin 16 μM, exogenous ATP 3 mM
Description: FIGS. 5A-5E. CaMKII-independent P2X7-mediated killing. FIG. 5A: qPCR showing the extent of gene knockdown in 4T1.2 cells transfected with shRNA targeting the P2X7 receptor versus non-targeting (NT) control (left panel). […] One million wt, shRNA(NT) and shRNA(P2X7) 4T1.2 cells were plated and incubated for 48 h before evaluation of cell numbers and viability. FIG. 5B: P2X7 knockdown cells are more resistant to ATP and the ATP/IVM combo. 4T1.2 cells were treated for 24 h with 1-3 mM ATP, 6-10 μM Ivermectin, or combinations of ATP and Ivermectin. P2X7 knockdown suppresses the synergy between Ivermectin and high dose ATP, as shown by calculation of combination index (CI) values, see Table 2. FIG. 5C: P2X7 knockdown cells are resistant to ATP/Ivermectin induced membrane permeabilization (Asterisk (*) indicates p<0.05). […] FIG. 5E: Comparison of the protective effects of P2X7, CaMKII, and NADPH oxidases inhibition in short-term (4 h, 32 μM IVM) and long-term (24 h, 12 μM IVM) exposure of 4T1.2 cells to Ivermectin. Asterisk (*) indicates p<0.05 relative to Ivermectin alone controls.
as §1

4T1.2 cancer cells = assay: Synergy between Ivermectin and ROS (CompuSyn CI); format: cell-based, mouse; details: for CompuSyn CI values: 4T1.2, 24 h/48 h
Description: FIGS. 2A-2C. Role of NADPH oxidases-generated ROS. […] 4T1.2 cells were labeled with a ROS detection probe and treated for 1 h with 32 μM Ivermectin in the presence of 1 mM EDTA, 5mM NAC, 5 μM DPI, 2500 μunits/ml Apyrase, 3 mM ATP, and 10 μM KN-62. […] Triangles (▴) indicate significant antagonism CI>1.0. […] 4T1.2 cancer cells were irradiated (10-20 kRad) or treated with H2O2 (10-1000 μM), PTX (0.1-1 μM), or DOX (1-4 μM) and incubated with Ivermectin for 24 h/48 h. Circles (●) indicate significant synergy CI<1.0, see Table 1. Asterisk (*) indicates p<0.05 relative to untreated or Ivermectin alone controls, respectively.
Cell viability. Cancer cells were plated on 96 well flat-bottom plates and allowed to attach overnight. Cells were then pre-incubated with drugs for 1 h and treated with Ivermectin for 4 h. In the case of 24 h and 48 h incubations the cells, Ivermectin and drugs were plated together. […] Following treatment the plates were washed once with PBS and cell viability was measured using the acid phosphatase assay. Briefly, cells were incubated for 1h at 37° C. in 100 μL assay buffer (0.16 M sodium acetate, 0.1% Triton-X-100, supplemented with 4-Nitrophenyl phosphate disodium salt hexahydrate, Sigma Aldrich, at 0.00263 g/ml). Reaction was stopped using 10 μL of 1N sodium hydroxide. Absorption at 405 nm was measured within 10 min using a multi-well plate reader. Mode of cell death and viability of cells in suspension was evaluated using flow cytometry. Briefly, cancer cells were pre-incubated with drugs for 30 min to 1 h, as indicated, treated with Ivermectin for 4 h in 5 ml FACS tubes , washed twice in PBS and stained with PE-conjugated Annexin V and 7AAD (1 μl per 100 μl/200,000 cancer cells) for 15 min.

[3] = tested on: 4T1.2 breast cancer cells; assay: Cytosolic Cl- influx; format: cell-based; details: mouse 4T1.2 cells
Description: Cytosolic Cl^− influx. Cancer cells in suspension were treated with various doses of Ivermectin in R10 medium for 1h at 37° C. and 5% CO2. Cells were then washed with PBS and loaded with 10 μM SPQ probe (Life Technologies, M440) in a hypotonic buffer containing 50% PBS and 50% double distilled water. Following brief 15 min incubation at room temperature in the dark cells were washed once with PBS and immediately analyzed by flow cytometry measuring fluorescence in the AF350 channel.

## CC[C@H](C)[C@H]1O[C@]2(CC[C@@H]1C)C[C@@H]1C[C@@H](C/C=C(\C)[C@@H](O[C@H]3C[C@H](OC)[C@@H](O[C@H]4C[C@H](OC)[C@@H](O)[C@H](C)O4)[C@H](C)O3)[C@@H](C)/C=C/C=C3\CO[C@@H]4[C@H](O)C(C)=C[C@@H](C(=O)O1)[C@]34O)O2 [Ivermectin]
[1]
  sensitivity of breast cancer cells versus normal cells: higher sensitivity than normal cells
[2]
  killing by combination of Ivermectin and ATP: synergistically kill
4T1.2 cancer cells; 4T1.2 cells
  synergy with irradiation, H2O2-generated ROS, doxorubicin and paclitaxel: synergistic
4T1.2 cancer cells; kRad 15 + Ivermectin 4
  CompuSyn CI values: .16
4T1.2 cancer cells; kRad 15 + Ivermectin 8
  CompuSyn CI values: .75
4T1.2 cancer cells; kRad 20 + Ivermectin 4
  CompuSyn CI values: .94
4T1.2 cancer cells; kRad 20 + Ivermectin 8
  CompuSyn CI values: .63
[3]
  cytosolic Cl- influx: Cl^− influx
